Data as given in ChEMBL document CHEMBL5357012, “Dual N6/C7-Substituted 7-Deazapurine and Tricyclic Ribonucleosides with Affinity for G Protein-Coupled Receptors” (ACS Med Chem Lett, 2024).

Experiments:
[1] = target: 5-hydroxytryptamine receptor 2B (Homo sapiens, UniProt P41595)
Description: Inhibition of human 5-HT2B receptor assessed as inhibition constant by microbeta scintillation counting method

[2] = Cytotoxicity against human MRC5 cells assessed as reduction in cell viability measured after 3 days by resazurin dye based fluorimetric analysis
[3] = target: Kappa-type opioid receptor (Homo sapiens, UniProt P41145); assay: Inhibition of human KOR assessed as inhibition constant by microbeta scintillation counting method
Chain of Kappa-type opioid receptor (P41145 whole entry): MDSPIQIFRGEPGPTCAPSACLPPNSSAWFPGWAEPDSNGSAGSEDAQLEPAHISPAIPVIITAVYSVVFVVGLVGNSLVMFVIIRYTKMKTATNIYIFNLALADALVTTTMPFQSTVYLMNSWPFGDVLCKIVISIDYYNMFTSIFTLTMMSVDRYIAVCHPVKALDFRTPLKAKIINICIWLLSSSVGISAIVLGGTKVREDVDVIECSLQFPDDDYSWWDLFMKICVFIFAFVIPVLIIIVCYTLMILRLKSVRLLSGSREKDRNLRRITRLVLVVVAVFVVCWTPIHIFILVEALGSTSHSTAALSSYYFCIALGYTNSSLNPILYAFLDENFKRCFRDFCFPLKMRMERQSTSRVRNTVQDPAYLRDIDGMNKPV

Chain of 5-hydroxytryptamine receptor 2B (P41595 whole entry): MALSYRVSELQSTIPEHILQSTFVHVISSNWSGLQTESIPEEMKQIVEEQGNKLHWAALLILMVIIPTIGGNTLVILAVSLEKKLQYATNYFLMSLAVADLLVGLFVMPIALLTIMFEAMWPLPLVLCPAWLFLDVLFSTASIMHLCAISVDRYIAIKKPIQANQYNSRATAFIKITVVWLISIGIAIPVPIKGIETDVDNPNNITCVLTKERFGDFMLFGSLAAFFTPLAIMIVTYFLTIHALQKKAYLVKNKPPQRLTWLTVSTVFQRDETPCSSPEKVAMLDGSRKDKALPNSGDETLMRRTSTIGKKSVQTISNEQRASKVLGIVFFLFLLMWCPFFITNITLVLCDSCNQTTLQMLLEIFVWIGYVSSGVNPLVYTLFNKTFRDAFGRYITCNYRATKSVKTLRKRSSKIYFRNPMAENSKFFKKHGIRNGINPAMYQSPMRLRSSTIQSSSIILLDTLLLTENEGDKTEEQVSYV

SMILES	Ki [1] [nM]	CC50 at 72 h [2] [nM]	Ki [3] [nM]
OC[C@H]1O[C@@H](n2cc(C(F)(F)F)c3c(NCc4ccc(Cl)cc4)ncnc32)[C@H](O)[C@@H]1O	830	–	–
OC[C@H]1O[C@@H](n2cc(C(F)(F)F)c3c(NCc4cccc(Cl)c4)ncnc32)[C@H](O)[C@@H]1O	620	> 64000	–
OC[C@H]1O[C@@H](n2cc(C(F)(F)F)c3c(NCc4ccccc4)ncnc32)[C@H](O)[C@@H]1O	500	–	1800
C[C@@H](Nc1ncnc2c1c(C(F)(F)F)cn2[C@@H]1O[C@H](CO)[C@@H](O)[C@H]1O)c1ccccc1	710	–	–
OC[C@H]1O[C@@H](n2cc(C(F)(F)F)c3c(NCc4ccccc4F)ncnc32)[C@H](O)[C@@H]1O	1200	> 64000	–
C[C@H](Nc1ncnc2c1c(C(F)(F)F)cn2[C@@H]1O[C@H](CO)[C@@H](O)[C@H]1O)c1ccccc1	–	–	1900
OC[C@H]1O[C@@H](n2cc(C(F)(F)F)c3c(NCc4ccccc4Cl)ncnc32)[C@H](O)[C@@H]1O	550	–	–
